For one experiment, the target named is EGFR L858R/T790M/C797S (Homo sapiens, UniProt P00533, C797S/L858R/T790M). Description: Biochemical EGFR kinase assay (Lance Ultra TR-FRET), triple mutant L858R/T790M/C797S. As for the experimental part:
(§1) Biochemical EGFR kinase assays were conducted using Lance Ultra time-resolved fluorescence resonance energy transfer (TR-FRET) technology from Perkin-Elmer. Compounds of the invention were initially diluted to 20 mM in 100% DMSO for storage and made into kinase buffer solution to create a compound concentration ranging from 0.003 μM and 10 μM.
(§2) Each kinase reactions were incubated at room temperature for 1 hour and then stopped by the addition of 4 μL of stop solution (10 mM EDTA). The specific Europium-labeled-anti-phosphopeptide antibody (PerkinElmer, AD0069) diluted in LANCE detection buffer was then added to a final concentration of 2 nM. After 60 minutes incubation at room temperature the LANCE signal was measured on an EnVision Multilabel Reader (Perkin-Elmer). Excitation wavelength was set at 320 nm and emission monitored at 615 nm (donor) and 665 nm (acceptor). The IC50 values were determined using GraphPad prism software (GraphPad Software, Inc., San Diego, CA, USA).

Another experiment addresses EGFR wildtype (WT) (Homo sapiens, UniProt P00533). Description: Biochemical EGFR kinase assay (Lance Ultra TR-FRET), wildtype. As for the experimental part: as §1, §2
In general terms: TR-FRET usually uses a lanthanide donor and a delayed reading to cut background.

Another experiment addresses EGFR del19/T790M/C797S (Homo sapiens, UniProt P00533, C797S/DEL746-750/T790M). Description: Biochemical EGFR kinase assay (Lance Ultra TR-FRET), triple mutant del19/T790M/C797S. As for the experimental part:
as §1, §2

The next experiment concerns the target EGFR L858R/C797S (Homo sapiens, UniProt P00533, C797S/L858R). Kind of experiment: Biochemical EGFR kinase assay (Lance Ultra TR-FRET), double mutant L858R/C797S. As for the experimental part: as §1, §2
The mark [1] stands for this setting: IC50 L858R/T790M/C797S (nM) 100 μM ATP, 100 μM ATP.
Where [2] appears, read: IC50 WT (nM) 100 μM ATP, 100 μM ATP.
Setting [3] is: IC50 del19/T790M/C797S (nM) 100 μM ATP, 100 μM ATP.
Where [4] appears, read: IC50 L858R/C797S (nM) 100 μM ATP, 100 μM ATP.
[5] abbreviates: Km ATP, read-out: IC50 L858R/T790M/C797S (nM) Km ATP.
[6] abbreviates: Km ATP, read-out: IC50 WT (nM) Km ATP.
Where [7] appears, read: Km ATP, read-out: IC50 del19/T790M/C797S (nM) Km ATP.
The mark [8] stands for this setting: Km ATP, read-out: IC50 L858R/C797S (nM) Km ATP.

Structures are written as SMILES. Like-named read-outs stand apart in the source and are kept apart here.

EGFR L858R/T790M/C797S, sequence (P00533 25-1210 T790M/C797S/L858R): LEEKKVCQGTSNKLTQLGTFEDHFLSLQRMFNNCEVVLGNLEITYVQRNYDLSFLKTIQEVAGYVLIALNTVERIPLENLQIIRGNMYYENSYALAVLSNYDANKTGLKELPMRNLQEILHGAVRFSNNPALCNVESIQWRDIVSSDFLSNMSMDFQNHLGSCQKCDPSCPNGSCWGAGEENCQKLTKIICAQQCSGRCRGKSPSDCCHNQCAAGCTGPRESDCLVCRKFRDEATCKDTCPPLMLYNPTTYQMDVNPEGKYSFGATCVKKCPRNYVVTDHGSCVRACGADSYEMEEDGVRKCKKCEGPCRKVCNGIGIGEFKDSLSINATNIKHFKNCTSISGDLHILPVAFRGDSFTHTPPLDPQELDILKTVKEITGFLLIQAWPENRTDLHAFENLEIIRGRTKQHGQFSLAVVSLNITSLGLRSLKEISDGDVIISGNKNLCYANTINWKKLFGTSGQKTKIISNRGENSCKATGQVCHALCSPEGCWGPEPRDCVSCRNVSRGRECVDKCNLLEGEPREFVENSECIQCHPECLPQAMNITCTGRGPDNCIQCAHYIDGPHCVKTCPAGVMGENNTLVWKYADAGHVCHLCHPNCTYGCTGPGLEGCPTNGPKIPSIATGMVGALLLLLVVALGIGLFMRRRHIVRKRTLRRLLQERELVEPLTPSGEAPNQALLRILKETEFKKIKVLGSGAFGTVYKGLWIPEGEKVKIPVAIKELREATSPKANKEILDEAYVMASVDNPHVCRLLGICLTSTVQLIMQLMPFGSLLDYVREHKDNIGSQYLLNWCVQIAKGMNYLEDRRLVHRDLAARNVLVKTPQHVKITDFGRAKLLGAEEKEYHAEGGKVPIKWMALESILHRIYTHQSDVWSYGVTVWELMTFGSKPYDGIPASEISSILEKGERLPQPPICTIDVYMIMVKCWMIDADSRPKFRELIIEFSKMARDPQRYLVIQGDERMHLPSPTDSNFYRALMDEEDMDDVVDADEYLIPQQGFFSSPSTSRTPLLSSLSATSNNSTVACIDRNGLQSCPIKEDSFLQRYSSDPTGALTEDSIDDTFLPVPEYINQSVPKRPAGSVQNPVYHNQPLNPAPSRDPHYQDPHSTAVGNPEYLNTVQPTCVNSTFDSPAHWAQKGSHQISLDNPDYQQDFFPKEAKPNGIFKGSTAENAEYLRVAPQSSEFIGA
EGFR wildtype (WT), sequence (P00533 25-1210): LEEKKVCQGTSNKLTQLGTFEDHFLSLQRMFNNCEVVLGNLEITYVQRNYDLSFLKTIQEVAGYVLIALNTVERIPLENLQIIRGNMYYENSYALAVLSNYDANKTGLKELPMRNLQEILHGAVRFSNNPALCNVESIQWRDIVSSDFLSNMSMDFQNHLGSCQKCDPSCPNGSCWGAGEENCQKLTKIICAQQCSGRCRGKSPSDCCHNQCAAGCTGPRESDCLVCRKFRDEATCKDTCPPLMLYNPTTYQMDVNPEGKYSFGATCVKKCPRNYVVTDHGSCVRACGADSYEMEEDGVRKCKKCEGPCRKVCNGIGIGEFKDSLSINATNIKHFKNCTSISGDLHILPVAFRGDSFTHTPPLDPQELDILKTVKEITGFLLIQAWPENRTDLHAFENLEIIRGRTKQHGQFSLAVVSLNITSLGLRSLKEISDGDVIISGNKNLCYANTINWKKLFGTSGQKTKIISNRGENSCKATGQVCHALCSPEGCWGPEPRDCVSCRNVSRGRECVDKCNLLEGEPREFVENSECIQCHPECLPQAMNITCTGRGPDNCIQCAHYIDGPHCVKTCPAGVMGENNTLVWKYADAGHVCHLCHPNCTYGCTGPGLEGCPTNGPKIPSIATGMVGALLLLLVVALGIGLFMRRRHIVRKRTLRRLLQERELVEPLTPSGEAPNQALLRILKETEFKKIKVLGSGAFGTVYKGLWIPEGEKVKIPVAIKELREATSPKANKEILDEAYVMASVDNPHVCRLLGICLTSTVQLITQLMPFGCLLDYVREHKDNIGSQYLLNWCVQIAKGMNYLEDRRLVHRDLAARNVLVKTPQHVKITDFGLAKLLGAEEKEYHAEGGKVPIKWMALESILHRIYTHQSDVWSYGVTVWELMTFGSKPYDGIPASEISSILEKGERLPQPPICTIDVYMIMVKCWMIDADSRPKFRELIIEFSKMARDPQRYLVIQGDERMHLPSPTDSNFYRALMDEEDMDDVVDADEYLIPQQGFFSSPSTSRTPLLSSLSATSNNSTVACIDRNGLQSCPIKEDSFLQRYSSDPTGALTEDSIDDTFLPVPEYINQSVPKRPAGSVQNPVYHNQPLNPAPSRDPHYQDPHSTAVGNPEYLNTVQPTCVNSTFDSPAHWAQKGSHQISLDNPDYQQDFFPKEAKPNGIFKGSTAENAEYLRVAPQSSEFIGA
EGFR del19/T790M/C797S, sequence (P00533 with tags, fused parts or gaps DEL746-750/T790M/C797S): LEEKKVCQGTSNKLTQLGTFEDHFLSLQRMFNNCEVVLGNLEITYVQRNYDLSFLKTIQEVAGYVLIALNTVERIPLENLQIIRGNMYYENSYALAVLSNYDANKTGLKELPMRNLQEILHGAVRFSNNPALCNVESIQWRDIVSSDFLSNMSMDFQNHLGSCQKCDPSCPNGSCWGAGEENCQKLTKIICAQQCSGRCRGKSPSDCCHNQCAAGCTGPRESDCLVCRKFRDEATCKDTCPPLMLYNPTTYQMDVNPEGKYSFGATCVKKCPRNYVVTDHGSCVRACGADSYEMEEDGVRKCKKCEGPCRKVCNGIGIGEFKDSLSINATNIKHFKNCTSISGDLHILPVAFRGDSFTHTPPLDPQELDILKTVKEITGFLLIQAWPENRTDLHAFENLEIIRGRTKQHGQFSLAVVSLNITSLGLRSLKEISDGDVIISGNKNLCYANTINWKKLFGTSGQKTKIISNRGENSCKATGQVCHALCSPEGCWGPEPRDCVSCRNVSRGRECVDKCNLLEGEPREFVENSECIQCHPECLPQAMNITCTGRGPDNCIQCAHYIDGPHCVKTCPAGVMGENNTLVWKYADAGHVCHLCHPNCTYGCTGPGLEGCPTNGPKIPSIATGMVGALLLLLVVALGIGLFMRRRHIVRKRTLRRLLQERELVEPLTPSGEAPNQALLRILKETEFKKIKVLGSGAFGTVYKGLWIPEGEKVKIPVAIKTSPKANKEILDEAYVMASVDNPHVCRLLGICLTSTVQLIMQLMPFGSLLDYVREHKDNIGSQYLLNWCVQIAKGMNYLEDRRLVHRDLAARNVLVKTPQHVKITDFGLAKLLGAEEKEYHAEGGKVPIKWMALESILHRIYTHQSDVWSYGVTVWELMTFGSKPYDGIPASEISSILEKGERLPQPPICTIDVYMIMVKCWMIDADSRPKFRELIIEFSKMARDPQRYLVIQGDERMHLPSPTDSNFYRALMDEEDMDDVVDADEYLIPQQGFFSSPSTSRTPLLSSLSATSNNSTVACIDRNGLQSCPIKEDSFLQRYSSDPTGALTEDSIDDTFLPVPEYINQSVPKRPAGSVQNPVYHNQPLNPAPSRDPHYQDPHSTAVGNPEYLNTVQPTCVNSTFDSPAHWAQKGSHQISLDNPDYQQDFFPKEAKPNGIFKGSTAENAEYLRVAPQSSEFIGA
EGFR L858R/C797S, sequence (P00533 25-1210 C797S/L858R): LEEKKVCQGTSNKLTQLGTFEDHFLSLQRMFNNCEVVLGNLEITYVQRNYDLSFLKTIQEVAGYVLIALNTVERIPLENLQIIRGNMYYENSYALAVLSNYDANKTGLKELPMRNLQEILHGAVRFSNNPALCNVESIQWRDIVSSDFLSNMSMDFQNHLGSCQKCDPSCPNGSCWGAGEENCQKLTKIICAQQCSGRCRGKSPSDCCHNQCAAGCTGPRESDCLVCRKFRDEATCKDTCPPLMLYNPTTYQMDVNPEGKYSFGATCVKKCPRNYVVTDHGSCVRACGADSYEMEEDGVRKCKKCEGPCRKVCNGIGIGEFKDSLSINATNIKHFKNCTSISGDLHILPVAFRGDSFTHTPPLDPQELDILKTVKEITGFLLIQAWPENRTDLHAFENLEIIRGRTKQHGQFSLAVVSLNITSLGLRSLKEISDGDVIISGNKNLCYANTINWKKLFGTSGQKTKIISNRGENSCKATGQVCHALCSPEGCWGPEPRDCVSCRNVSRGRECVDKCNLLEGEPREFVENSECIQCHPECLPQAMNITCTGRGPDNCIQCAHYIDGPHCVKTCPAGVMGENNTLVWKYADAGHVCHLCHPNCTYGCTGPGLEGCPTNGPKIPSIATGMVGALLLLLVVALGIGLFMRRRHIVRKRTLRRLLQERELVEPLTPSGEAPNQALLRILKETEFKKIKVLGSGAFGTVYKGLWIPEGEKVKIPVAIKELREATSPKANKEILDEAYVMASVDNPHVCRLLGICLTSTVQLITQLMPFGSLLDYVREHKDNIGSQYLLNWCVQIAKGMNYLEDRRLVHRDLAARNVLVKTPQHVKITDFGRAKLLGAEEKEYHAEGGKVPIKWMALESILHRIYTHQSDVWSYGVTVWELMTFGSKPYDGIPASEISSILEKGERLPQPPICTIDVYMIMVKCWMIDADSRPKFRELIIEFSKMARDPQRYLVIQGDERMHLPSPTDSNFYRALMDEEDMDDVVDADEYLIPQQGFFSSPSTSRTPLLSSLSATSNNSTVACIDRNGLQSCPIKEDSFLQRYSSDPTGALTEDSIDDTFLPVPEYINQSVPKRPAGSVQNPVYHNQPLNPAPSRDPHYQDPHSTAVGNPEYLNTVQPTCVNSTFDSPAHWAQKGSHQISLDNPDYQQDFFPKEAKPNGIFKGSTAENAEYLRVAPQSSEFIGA

Turning to `CC(C)n1ccc(-c2cnc(Nc3ccnc(-c4cnn(S(=O)(=O)C5CC5)c4)n3)cc2N[C@H]2CC[C@@](C)(O)CC2)n1` [Example 84, (1s,4s)-4-((2-((2-(1-(Cyclopropylsulfonyl)-1H-pyrazol-4-yl)pyrimidin-4-yl)amino)-5-(1-isopropyl-1H-pyrazol-3-yl)pyridin-4-yl)amino)-1-methylcyclohexan-1-ol], the IC50 was 1 nM on EGFR L858R/T790M/C797S (setting [1]), > 10000 nM against EGFR wildtype (WT) (setting [2]), 0.6 nM against EGFR del19/T790M/C797S (setting [3]) and 6.7 nM on EGFR L858R/C797S (setting [4]).
With `C[C@]1(O)CC[C@@H](Nc2cc(Nc3ccnc(-c4cnn(S(=O)(=O)C5CC5)c4)n3)ncc2-c2ccn(CCC(F)(F)F)n2)CC1` [Example 295, (1s,4s)-4-((2-((2-(1-(Cyclopropylsulfonyl)-1H-pyrazol-4-yl)pyrimidin-4-yl)amino)-5-(1-(3,3,3-trifluoropropyl)-1H-pyrazol-3-yl)pyridin-4-yl)amino)-1-methylcyclohexan-1-ol], the IC50 on EGFR L858R/T790M/C797S (setting [5]) worked out at 0.6 nM; on EGFR wildtype (WT) (setting [6]), 3.8 nM; at EGFR del19/T790M/C797S (setting [7]), 0.7 nM; on EGFR L858R/C797S (setting [8]), 0.3 nM.
With `C[C@]1(O)CC[C@@H](Nc2cc(Nc3ccnc(-c4cnn(S(=O)(=O)C5CC5)c4)n3)ncc2-c2nc(C(F)F)cs2)CC1` [Example 122, (1s,4s)-4-((2-((2-(1-(Cyclopropylsulfonyl)-1H-pyrazol-4-yl)pyrimidin-4-yl)amino)-5-(4-(difluoromethyl)thiazol-2-yl)pyridin-4-yl)amino)-1-methylcyclohexan-1-ol], the IC50 against EGFR L858R/T790M/C797S (setting [1]) worked out at 0.4 nM; on EGFR L858R/T790M/C797S (setting [5]), 0.3 nM; on EGFR wildtype (WT) (setting [2]), 1420 nM; at EGFR wildtype (WT) (setting [6]), 9 nM; at EGFR del19/T790M/C797S (setting [3]) it was 0.6 nM; against EGFR L858R/C797S (setting [4]) it was 8.5 nM.
`CN(C)CC1(C)CCC(Nc2cc(Nc3ccnc(-c4cnn(S(=O)(=O)C5CC5)c4)n3)ncc2-c2ccn(C(F)F)n2)CC1` (stereo not shown) [Example 207, N^2-(2-(1-(Cyclopropylsulfonyl)-1H-pyrazol-4-yl)pyrimidin-4-yl)-5-(1-(difluoromethyl)-1H-pyrazol-3-yl)-N^4-(4-((dimethylamino)methyl)-4-methylcyclohexyl)pyridine-2,4-diamine]: the IC50 against EGFR L858R/T790M/C797S (setting [1]) came out at 1 nM; at EGFR L858R/T790M/C797S (setting [5]), 0.3 nM; on EGFR wildtype (WT) (setting [2]), 5120 nM; on EGFR wildtype (WT) (setting [6]), 15.3 nM; on EGFR del19/T790M/C797S (setting [3]), 0.7 nM; at EGFR del19/T790M/C797S (setting [7]), 0.8 nM. Besides, the IC50 on EGFR L858R/C797S (setting [4]) was 200 nM; at EGFR L858R/C797S (setting [8]) it was 10.5 nM.
On to `C[C@]1(O)CC[C@@H](Nc2cc(Nc3ccnc(-c4cnn(S(=O)(=O)C5CCCC5)c4)n3)ncc2-c2ccn(C(F)F)n2)CC1` [Example 115, (1s,4s)-4-((2-((2-(1-(Cyclopentylsulfonyl)-1H-pyrazol-4-yl)pyrimidin-4-yl)amino)-5-(1-(difluoromethyl)-1H-pyrazol-3-yl)pyridin-4-yl)amino)-1-methylcyclohexan-1-ol], for which the IC50 on EGFR L858R/T790M/C797S (setting [5]) is 1.3 nM; at EGFR wildtype (WT) (setting [6]) it was 20.2 nM; at EGFR del19/T790M/C797S (setting [7]) it was 1.9 nM.
As for `C[C@]1(O)CC[C@@H](Nc2cc(Nc3ccnc(-c4cnn(S(=O)(=O)C5CC5)c4)n3)ncc2-c2csc(C(F)(F)F)n2)CC1` [Example 51, (1s,4s)-4-((2-((2-(1-(Cyclopropylsulfonyl)-1H-pyrazol-4-yl)pyrimidin-4-yl)amino)-5-(2-(trifluoromethyl)thiazol-4-yl)pyridin-4-yl)amino)-1-methylcyclohexan-1-ol], the figures for the IC50 at EGFR wildtype (WT) (setting [2]), against EGFR del19/T790M/C797S (setting [3]) and against EGFR L858R/C797S (setting [4]) were > 10000 nM, 2.4 nM and 7 nM, respectively.
